ChEMBL document CHEMBL1201862, “PubChem BioAssay data set” (2004)
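Cultured in 96-well plates, cells were exposed to test compound for 48 hours across five concentrations. GI50 = concentration required for 50% inhibition of growth.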 Active and inactive are the calls of the source. Rule as the data show it: active = GI50 up to about 1.1 µM and inactive = higher.

Legend:
Test in all cases: DTP human tumour cell line panel, 48 h
A549 = test system: A549
COLO 205 = test system: COLO 205
EKVX = test system: EKVX
HL-60 = test system: HL-60
KM12 = test system: KM12
M14 = test system: M14
MCF7 = test system: MCF7
MDA-MB-435 = test system: MDA-MB-435
NCI-H226 = test system: NCI-H226
NCI-H23 = test system: NCI-H23
SF-268 = test system: SF-268
SF-295 = test system: SF-295
SF-539 = test system: SF-539
SK-MEL-28 = test system: SK-MEL-28
SN12C = test system: SN12C
SNB-19 = test system: SNB-19
U-251 = test system: U-251
UACC-62 = test system: UACC-62
SNB-75 = test system: SNB-75

Measured: GI50

CC(C)OC(=O)C1=C2c3ncccc3C(=O)N2[C@@H](Cl)[C@H](Cl)[C@H]1Cl
inactive: A549 > 100 µM | COLO 205 44 µM | EKVX > 100 µM | HL-60 38.2 µM | KM12 > 100 µM | M14 > 100 µM | MCF7 39.1 µM | MDA-MB-435 81.1 µM | NCI-H226 > 100 µM | NCI-H23 46.2 µM | SF-268 47.9 µM | SF-295 > 100 µM | SF-539 > 100 µM | SK-MEL-28 > 100 µM | SN12C 21.8 µM | SNB-19 > 100 µM | U-251 56.8 µM | UACC-62 > 100 µM

CCOc1cc(C(=O)O)c2c(ccc3ccc(OC)c(OC)c32)c1OC
inactive: A549 > 100 µM | COLO 205 > 100 µM | EKVX > 100 µM | HL-60 > 100 µM | KM12 > 100 µM | M14 > 100 µM | MCF7 > 100 µM | MDA-MB-435 > 100 µM | NCI-H226 > 100 µM | NCI-H23 > 100 µM | SF-268 > 100 µM | SF-295 > 100 µM | SK-MEL-28 > 100 µM | SN12C > 100 µM | SNB-19 > 100 µM | SNB-75 > 100 µM | U-251 > 100 µM | UACC-62 > 100 µM

CCCCN(CCCC)c1ccc(/N=N/c2ccc(S(=O)(=O)O)cc2)cc1
inactive: A549 39.8 µM | COLO 205 18.7 µM | EKVX 39.1 µM | HL-60 19.8 µM | KM12 12.8 µM | M14 > 100 µM | MCF7 21.9 µM | MDA-MB-435 57.9 µM | NCI-H23 20.6 µM | SF-268 > 100 µM | SF-295 40.9 µM | SF-539 16.7 µM | SK-MEL-28 81.3 µM | SN12C 25.4 µM | SNB-19 75.9 µM | SNB-75 11.7 µM | U-251 32.3 µM | UACC-62 > 100 µM

CCCCCC(=O)n1[nH]c(=O)n(-c2ccc(OC)cc2)c1=O
inactive: A549 > 100 µM | COLO 205 > 100 µM | EKVX > 100 µM | HL-60 > 100 µM | KM12 > 100 µM | M14 > 100 µM | MCF7 > 100 µM | MDA-MB-435 > 100 µM | NCI-H226 > 100 µM | NCI-H23 > 100 µM | SF-268 > 100 µM | SF-295 > 100 µM | SK-MEL-28 > 100 µM | SN12C > 100 µM | SNB-19 > 100 µM | SNB-75 > 100 µM | U-251 > 100 µM | UACC-62 > 100 µM

COc1c2c(c3c(c1CCC(=O)O)OC(C)(C)C=C3)OC(C)(C)C=C2
inactive: A549 54.5 µM | COLO 205 > 100 µM | EKVX 74.3 µM | HL-60 50.8 µM | KM12 > 100 µM | M14 > 100 µM | MCF7 > 100 µM | MDA-MB-435 28.9 µM | NCI-H226 83.4 µM | NCI-H23 > 100 µM | SF-268 > 100 µM | SF-295 > 100 µM | SK-MEL-28 > 100 µM | SN12C > 100 µM | SNB-19 > 100 µM | SNB-75 > 100 µM | U-251 > 100 µM | UACC-62 > 100 µM

CC(=O)OCCn1c(Cc2ccc(Cl)cc2)nn(C(C)=O)c1=O
inactive: A549 > 100 µM | COLO 205 > 100 µM | EKVX > 100 µM | HL-60 > 100 µM | KM12 > 100 µM | M14 > 100 µM | MCF7 > 100 µM | MDA-MB-435 > 100 µM | NCI-H226 > 100 µM | NCI-H23 > 100 µM | SF-268 > 100 µM | SF-295 > 100 µM | SF-539 > 100 µM | SK-MEL-28 > 100 µM | SN12C > 100 µM | SNB-19 > 100 µM | U-251 > 100 µM | UACC-62 > 100 µM

COC(=O)CN1CCN(c2cccc3c2CCCC3)CC1
inactive: A549 69.5 µM | COLO 205 29.2 µM | EKVX 66.2 µM | HL-60 35.2 µM | KM12 43.9 µM | M14 19.4 µM | MCF7 37 µM | MDA-MB-435 40.5 µM | NCI-H226 23.4 µM | NCI-H23 13.9 µM | SF-295 > 100 µM | SF-539 > 100 µM | SN12C 56 µM | SNB-19 > 100 µM | SNB-75 43.6 µM | U-251 > 100 µM | UACC-62 > 100 µM

Cc1ccccc1C(=N)c1ccccc1Cc1cccc2ccccc12
inactive: A549 25.1 µM | COLO 205 27.6 µM | EKVX 29.4 µM | HL-60 18.1 µM | KM12 16.6 µM | M14 34.2 µM | MCF7 19.1 µM | MDA-MB-435 21.9 µM | NCI-H226 17.1 µM | NCI-H23 24.5 µM | SF-268 20.6 µM | SF-295 19.2 µM | SF-539 17.6 µM | SK-MEL-28 20.7 µM | SN12C 19.2 µM | SNB-19 56.1 µM | U-251 18.2 µM | UACC-62 15.1 µM

CC1=NN(c2ccccc2Cl)C2(C1)C(Cl)C(=O)N2c1nc2ccccc2s1 (stereo not given)
inactive: A549 55.7 µM | COLO 205 61.1 µM | EKVX > 100 µM | HL-60 25.5 µM | KM12 55.6 µM | M14 52.4 µM | MCF7 44.8 µM | MDA-MB-435 41.8 µM | NCI-H226 50.5 µM | NCI-H23 48.4 µM | SF-268 64.9 µM | SF-295 61.8 µM | SN12C 31.8 µM | SNB-19 52.7 µM | SNB-75 20.8 µM | U-251 28.6 µM | UACC-62 44.6 µM

COC1(OC)N=C(N)C2(C#N)C(c3ccccc3)NC3=C(CCC3)C12C#N (stereo not given)
inactive: A549 > 100 µM | COLO 205 > 100 µM | EKVX > 100 µM | HL-60 > 100 µM | KM12 > 100 µM | M14 > 100 µM | MCF7 > 100 µM | MDA-MB-435 > 100 µM | NCI-H226 > 100 µM | NCI-H23 > 100 µM | SF-268 > 100 µM | SF-295 > 100 µM | SK-MEL-28 > 100 µM | SN12C > 100 µM | SNB-19 > 100 µM | U-251 > 100 µM | UACC-62 > 100 µM

CN(C)Cc1cc(O)c(O)c(CN(C)C)c1
inactive: A549 46.6 µM | COLO 205 34.7 µM | EKVX 16.4 µM | HL-60 24.8 µM | KM12 94.2 µM | M14 22.7 µM | MCF7 39.6 µM | MDA-MB-435 > 100 µM | NCI-H226 43.3 µM | NCI-H23 37 µM | SF-268 35.4 µM | SF-295 47 µM | SK-MEL-28 51.9 µM | SN12C 36.9 µM | SNB-19 50.9 µM | SNB-75 56.6 µM | U-251 36.6 µM | UACC-62 29.5 µM
